Laboratory results reported in US9464049B2, “Indole-carboxamides” (Hoffmann-La Roche Inc., priority 2013, dated 2016).

Assays:
[1] = tested on: human embryonic stem cell derived neural stem cells (NSCs); assay: Neural stem cell proliferation assay (neurogenesis assay, ATP levels by CellTiterGlo); type: cell-based; settings: compound concentration at which 150% activity of control (100%) is reached, NSC proliferation by ATP (CellTiterGlo) after 4 days incubation, dose response 8 μM to 8 nM
Method: Neural Stem Cell Proliferation Assay
Neurogenic properties of small molecules are determined based on the proliferation of human embryonic stem cell derived neural stem cells (NSCs) which were derived via a dual smad inhibition as previously described (Chambers, S. M., et al., Highly efficient neural conversion of human ES and iPS cells by dual inhibition of SMAD signaling, Nature biotechnology, 2009. 27(3): p. 275-80.)
Compounds respond is measured by the increase in cells based on ATP levels (Promega:CellTiterGlo®) after an incubation period of 4 days.
NSCs are thawed and expanded over 3 passages. On the 14th day, NSCs are seeded in Polyornithin/Laminin coated 384 well plates at a cell density of 21,000 cells/cm^2 in a media volume of 38 μl.
4 hours after cell seeding, compound solutions are added at a volume of 2 μl. Stock solutions of the compounds (water, 5% DMSO) are diluted to obtain a dose response (11 points, dilution factor is 2), ranging from 8 μM to 8 nM. Controls are run to consistently determine the neurogenic properties of the cells: • Negative (neutral) control is cell culture Media (final DMSO concentration: 0.25%). • Positive controls are: • 1. cell culture Media+100 ng/ml FGF2 (final DMSO concentration: 0.1%) • 2. cell culture Media+20 ng/ml EGF (final DMSO concentration: 0.1%) • 3. cell culture Media+100 ng/ml Wnt3a (final DMSO concentration: 0.1%)
After 4 days incubation at 37° C., 5% CO2, the amount of ATP per well is quantified. The ATP concentration is proportional to the cell number. ATP is quantified by using the Promega CellTiterGlo® kit. The CellTiterGlo® reagents contain a cell lysis buffer, a thermo stable luciferase (UltraGlo™ recombinant luciferase), magnesium and luciferin. Luciferin reacts with ATP producing oxyluciferin, AMP and light. The luminescence signal is proportional to the ATP content.
The value of negative (neutral) control is determined for each assay plate by taking the average of 16 negative control wells. The neurogenic compound response is calculated for each compound as (compound/Negative Control)*100.
The values of EC150 from the dose response curve are determined for each test compound. The EC150 is the compound concentration at which 150% activity of control (100%) is reached.

[2] = Homo sapiens, Neural stem cell, 96 h

| melting point [°C] | Compound | EC (150% of control) [1] [µM] | EC (150% of control) [1, 2] [µM] |
| --- | --- | --- | --- |
| – | 5-Cyano-7-3,4-difluorophenyl)-1H-indole-2-carboxamide [Example 33] | 0.056 | – |
| 237 | Cc1c(C(N)=O)n(C)c2c(-c3ccc(Cl)cc3)cc(C#N)cc12 [Example 1, 7-(4-Chloro-phenyl)-5-cyano-1,3-dimethylindole-2-carboxamide] | – | 0.14 |
| 156 | Cn1c(C(N)=O)cc2cc(F)cc(-c3ccc(F)cc3)c21 [Example 2, 5-Fluoro-7-(4-fluoro-phenyl)-1-methylindole-2-carboxamide] | – | 1.4 |
| 162 | NC(=O)c1cc2cc(F)cc(-c3ccc(F)cc3)c2[nH]1 [Example 3, 5-Fluoro-7-(4-fluoro-phenyl)-1H-indole-2-carboxamide] | – | 0.18 |
| 216 | Cc1c(C(N)=O)n(C)c2c(-c3ccc(F)cc3)cc(C#N)cc12 [Example 4, 5-Cyano-7-(4-fluorophenyl)-1,3-dimethylindole-2-carboxamide] | – | 0.21 |
| 212 | Cc1c(C(N)=O)n(C)c2c(-c3ccc(F)c(F)c3)cc(C#N)cc12 [Example 5, 5-Cyano-7-(3,4-difluorophenyl)-1,3-dimethylindole-2-carboxamide] | – | 0.35 |
| 195 | Cc1c(C(N)=O)n(C)c2c(-c3ccc(C(F)(F)F)cc3)cc(C#N)cc12 [Example 6, 5-Cyano-1,3-dimethyl-7-[4-(trifluoromethyl)-phenyl]-indole-2-carboxamide] | – | 2.7 |
| 222 | Cc1c(C(N)=O)[nH]c2c(-c3ccc(F)c(F)c3)cc(C#N)cc12 [Example 7, 5-Cyano-7-(3,4-difluorophenyl)-3-methyl-1H-indole-2-carboxamide] | – | 0.3 |
| 243 | Cc1c(C(N)=O)[nH]c2c(-c3ccc(C(F)(F)F)cc3)cc(C#N)cc12 [Example 8, 5-Cyano-3-methyl-7-[4-(trifluoromethyl)phenyl]-1H-indole-2-carboxamide] | – | 0.4 |
| 268 | Cc1c(C(N)=O)[nH]c2c(-c3ccc(F)cc3)cc(C#N)cc12 [Example 9, 5-Cyano-7-(4-fluorophenyl)-3-methyl-1H-indole-2-carboxamide] | – | 0.22 |
| 291 | Cc1c(C(N)=O)[nH]c2c(-c3ccc(Cl)cc3)cc(C#N)cc12 [Example 10, 7-(4-Chlorophenyl)-5-cyano-3-methyl-1H-indole-2-carboxamide] | – | 0.21 |
| 173 | Cc1c(C(N)=O)[nH]c2c(-c3ccc(F)cc3)cc(Cl)cc12 [Example 11, 5-Chloro-7-(4-fluorophenyl)-3-methyl-1H-indole-2-carboxamide] | – | 0.22 |
| 252 | Cc1c(C(N)=O)[nH]c2c(-c3ccc(Cl)cc3)cc(Cl)cc12 [Example 12, 5-Chloro-7-(4-chlorophenyl)-3-methyl-1H-indole-2-carboxamide] | – | 0.31 |
| 178 | Cc1c(C(N)=O)n(C)c2c(-c3ccc(F)cc3)cc(Cl)cc12 [Example 13, 5-Chloro-7-(4-fluorophenyl)-1,3-dimethylindole-2-carboxamide] | – | 1.64 |
| 195 | Cc1c(C(N)=O)n(C)c2c(-c3ccc(Cl)cc3)cc(Cl)cc12 [Example 14, 5-Chloro-7-(4-chlorophenyl)-1,3-dimethylindole-2-carboxamide] | – | 0.84 |
| 206 | Cc1c(C(N)=O)[nH]c2c(-c3ccc(F)c(F)c3)cc(Cl)cc12 [Example 15, 5-Chloro-7-(3,4-difluorophenyl)-3-methyl-1H-indole-2-carboxamide] | – | 0.64 |
| 184 | Cc1c(C(N)=O)[nH]c2c(-c3ccc(C(F)(F)F)cc3)cc(Cl)cc12 [Example 16, 5-Chloro-3-methyl-7-[4-(trifluoromethyl)-phenyl]-1H-indole-2-carboxamide] | – | 0.75 |

| melting point [°C] | Compound | EC (150% of control) [1] [µM] | EC (150% of control) [1, 2] [µM] |
| --- | --- | --- | --- |
| 196 | Cc1c(C(N)=O)n(C)c2c(-c3ccc(F)c(F)c3)cc(Cl)cc12 [Example 17, 5-Chloro-7-(3,4-difluorophenyl)-1,3-dimethylindole-2-carboxamide] | – | 3.3 |
| 206 | Cc1c(C(N)=O)n(C)c2c(-c3ccc(C(F)(F)F)cc3)cc(Cl)cc12 [Example 18, 5-Chloro-1,3-dimethyl-7-[4-(trifluoromethyl)phenyl]indole-2-carboxamide] | – | 2.8 |
| 207 | Cc1c(C(N)=O)[nH]c2c(-c3ccc(OC(F)(F)F)cc3)cc(C#N)cc12 [Example 19, 5-Cyano-3-methyl-7-[4-(trifluoromethoxy)-phenyl]-1H-indole-2-carboxamide] | – | 1.13 |
| 294 | Cc1c(C(N)=O)[nH]c2c(-c3ccc(C#N)cc3)cc(C#N)cc12 [Example 20, 5-Cyano-7-(4-cyanophenyl)-3-methyl-1H-indole-2-carboxamide] | – | 0.24 |
| 106 | Cc1c(C(N)=O)n(C)c2c(-c3ccc(OC(F)(F)F)cc3)cc(C#N)cc12 [Example 21, 5-Cyano-1,3-dimethyl-7-[4-(trifluoromethoxy)phenyl]indole-2-carboxamide] | – | 0.43 |
| 226 | Cc1c(C(N)=O)n(C)c2c(-c3ccc(C#N)cc3)cc(C#N)cc12 [Example 22, 5-Cyano-7-(4-cyanophenyl)-1,3-dimethylindole-2-carboxamide] | – | 0.6 |
| 267 | Cc1c(C(N)=O)[nH]c2c(-c3ccc(C#N)cc3)cc(Cl)cc12 [Example 23] | – | 0.28 |
| 149 | Cc1c(C(N)=O)[nH]c2c(-c3ccc(OC(F)(F)F)cc3)cc(Cl)cc12 [Example 24, 5-Chloro-3-methyl-7-[4-(trifluoromethoxy)phenyl]-1H-indole-2-carboxamide] | – | 1.32 |
| 196 | Cc1c(C(N)=O)[nH]c2c(-c3ccc(F)cc3F)cc(Cl)cc12 [Example 25, 5-Chloro-7-(2,4-difluorophenyl)-3-methyl-1H-indole-2-carboxamide] | – | 0.21 |
| 195 | Cc1c(C(N)=O)[nH]c2c(-c3ccc(Cl)cc3Cl)cc(Cl)cc12 [Example 26, 5-Chloro-7-(2,4-dichlorophenyl)-3-methyl-1H-indole-2-carboxamide] | – | 0.33 |
| 181 | Cc1c(C(N)=O)n(C)c2c(-c3ccc(OC(F)(F)F)cc3)cc(Cl)cc12 [Example 27, 5-Chloro-1,3-dimethyl-7-[4-(trifluoromethoxy)-phenyl]indole-2-carboxamide] | – | 3.67 |
| 199 | Cc1c(C(N)=O)n(C)c2c(-c3ccc(C#N)cc3)cc(Cl)cc12 [Example 28, 5-Chloro-7-(4-cyanophenyl)-1,3-dimethylindole-2-carboxamide] | – | 1.06 |
| 220 | Cc1c(C(N)=O)n(C)c2c(-c3ccc(F)cc3F)cc(Cl)cc12 [Example 29, 5-Chloro-7-(2,4-difluorophenyl)-1,3-dimethylindole-2-carboxamide] | – | 0.23 |
| 221 | Cc1c(C(N)=O)n(C)c2c(-c3ccc(Cl)cc3Cl)cc(Cl)cc12 [Example 30, 5-Chloro-7-(2,4-dichlorophenyl)-1,3-dimethylindole-2-carboxamide] | – | 0.93 |
| 283 | Cc1c(C(N)=O)[nH]c2c(-c3ccc(Cl)c(F)c3)cc(Cl)cc12 [Example 31, 5-Chloro-7-(4-chloro-3-fluorophenyl)-3-methyl-1H-indole-2-carboxamide] | – | 0.43 |
| 192 | Cc1c(C(N)=O)n(C)c2c(-c3ccc(Cl)c(F)c3)cc(Cl)cc12 [Example 32, 5-Chloro-7-(4-chloro-3-fluorophenyl)-1,3-dimethylindole-2-carboxamide] | – | 1.02 |
| 234 | N#Cc1cc(-c2ccc(F)cc2)c2[nH]c(C(N)=O)cc2c1 [Example 34, 5-Cyano-7-(4-fluorophenyl)-1H-indole-2-carboxamide] | – | 0.057 |
